Assay results: publication PMC6271376 (Molecules, 2013)

Experiments:
[1] = Pharmacokinetic study in rats following intravenous administration; assay type: in vivo; conditions: Sprague-Dawley, rat, plasma
Procedure: Male SD rats weighing from 210 to 240 g were used for the PK study. All animal experiments were performed in accordance with institutional guidelines and were approved by the University Committee on Use and Care of Animals, Shenyang Pharmaceutical University. […] Serial blood samples (0.2 mL) were obtained at 0.08, 0.17, 0.25, 0.5, 0.75, 1, 1.5, 2, 3, 4, 6, 8, 10 and 12 h after intravenous administration. All samples were placed into heparinised tubes. The rat plasma samples were centrifuged at 13,000 rpm for 10 min, and the plasma supernatant was collected. THU was added to the plasma supernatant at a final concentration of 100 µM. The plasma was frozen at −80 °C until analysis.

[2] = Stability of azacitidine in rat plasma exposed to various storage conditions; conditions: for Concentration found: n = 3
Procedure: The selectivity was assessed by comparing the chromatograms of six different batches of blank rat plasma with the corresponding spiked rat plasma. […] The linearity was assessed by weighted (1/x^2) least-squares analysis of six different calibration curves. The LLOQ of the assay was the lowest concentration of the analyte with the recommended precision and accuracy less than 20%. The intra- and inter-day precision (the relative standard deviation, RSD) and accuracy (the relative error, RE) were determined by the analysis of low, medium, and high QC samples (n = 6) on 3 different days. The stability of the QC samples (n = 3) in three complete freeze/thaw cycles (−80 to 20 °C), long-term sample storage (−80 °C for 30 days) and on the bench top (20 °C for 2 h) was assessed. The ready-for-injection stability of the extracted samples in the autosampler rack at 4 °C for 24 h was also evaluated. The analytes were considered stable when the accuracy bias was within ± 20% of the nominal concentration.

[3] = male SD rats, 2.5 mg/kg, mean ± SD, n = 3

- half-life ([1]; male SD rats, single dose 2.5 mg/kg, mean ± SD, n = 3, read-out: t1/2β (elimination half-life) (converted)): 30.4 ± 11.9 min
- Vd [1, 3]: 2.07 ± 0.17 L/kg
- clearance [1, 3]: 20.9 mL/min/kg
- AUC(0-inf) ([1]; male, SD rats, single dose 2.5 mg/kg): 2000 ng·h/mL
- Concentration found ([2]; extracted rat plasma samples, sample rack for 24 h at 4 °C, added 20 ng/mL): 23.8 ng/mL
- Concentration found ([2]; extracted rat plasma samples, sample rack for 24 h at 4 °C, added 10,000 ng/mL): 9,966.3 ng/mL
- Concentration found ([2]; rat plasma, Ambient, 2 h, added 20 ng/mL): 24.0 ng/mL
- Concentration found ([2]; rat plasma, Ambient, 2 h, added 10,000 ng/mL): 10,388.5 ng/mL
- Stability (change in azacitidine concentrations) ([2]; rat plasma, all storage conditions of Table 3): No significant changes
- Concentration found ([2]; rat plasma, three freeze–thaw cycles, added 20 ng/mL): 24.0 ng/mL
- Concentration found ([2]; rat plasma, three freeze–thaw cycles, added 10,000 ng/mL): 10,073.4 ng/mL
- Concentration found ([2]; rat plasma, −80 °C, 30 days, added 20 ng/mL): 24.0 ng/mL
- Concentration found ([2]; rat plasma, −80 °C, 30 days, added 10,000 ng/mL): 9,519.1 ng/mL
Compound: Nc1ncn([C@@H]2O[C@H](CO)[C@@H](O)[C@H]2O)c(=O)n1 [Azacitidine]
